According to patent publication US4207326A, “Antimicrobial quaternary pyrazole derivatives” (Cilag-Chemie A.G., priority 1979, dated 1980):
Where two headings read alike, the source gives them in different places.

Experiments:
C. albicans = assay: Antimycotic activity: Minimum Inhibitory Concentration; format: cell-based, Candida albicans ATCC 10231; conditions: for Minimum Inhibitory Concentrations: C. albicans; for MIC: Candida albicans
Description: (§1) The antimicrobial activity was determined by inoculation of the test microorganism into suitable growth media containing solutions of the compounds at concentrations of 100, 50, 10, 5, 1.0, 0.5 and 0.1 μg/ml. The reference antibiotics used were Gentamicin for the antibacterial tests and Amphotericin B for the antimycotic and antifungal tests. After incubation the antimicrobial activity was recorded as the Minimal Inhibitory Concentration (M.I.C.), i.e., the lowest concentration preventing macroscopically visible growth, for each test compound against each organism.
(§2) An initial solution of each formula (I) compound to be tested in sterile distilled water was prepared at a concentration of 1000 μg/ml. With appropriate dilutions using sterile distilled water, additional solutions were prepared at concentrations of 500, 100, 50, 10, 5 and 1 μg/ml.
The two species, C. albicans and C. tropicalis, were maintained on Sabouraud-Dextrose Agar (Oxoid CM41) and cultures for the preparation of the inoculum were incubated on this agar at 37° C. for 48 hours. 4.5 Ml volumes of citric acid-phosphate buffer pH 5.5 plus Yeast-Nitrogen Base (Difco 0392-15) were then inoculated from the agar cultures and incubated at 37° C. for 48 hours. 0.1 Ml aliquots of these cultures were then added to 100 ml volumes of sterile physiological saline to give the final inocula.
(§3) (b) For the tests on each of the C. albicans, C. tropicalis and C. neoformans strains and each of the test and reference compounds, a series of 8 tubes containing 4.5 ml volumes of citric acid-phosphate buffer pH 5.5 plus Yeast-Nitrogen Base (Difco 0392-15) were prepared. To 7 of these were added 0.5 ml volumes of the final solutions of the test compounds, giving final concentrations in the broths of 100, 50, 10, 5, 1.0, 0.5 and 0.1 μg/ml. To the eighth tube in each series was added 0.5 ml of the solvent used and diluted as for the preparation of the 1000 μg/ml solution of the compound. This tube was used as the growth control. The tubes were then inoculated with 0.1 ml aliquots of the inocula prepared as in "(b) Fungi" above. The tubes inoculated with the C. albicans and C. tropicalis were inoculated at 37° C. for 72 hours and the tubes inoculated with the C. neoformans straim were incubated at 30° C. for 72 hours. […] The tubes were then examined for evidence of growth as shown by turbidity of the medium and the lowest concentration of the test compound which prevented fungal growth was recorded as the Minimal Inhibitory Concentration. This test procedure was carried out on two separate days.

C. neoformans = assay: as above; format: cell-based, Cryptococcus neoformans NCPF 3184; conditions: pH 5.5, 30° C., 72 hours; for MIC: Cryptococcus neoformans; for Minimum Inhibitory Concentrations: C. neoformans
Description: as §1, §2
The C. neoformans was also maintained on Sabouraud-Dextrose Agar (Oxoid CM 41), but in this case cultures for the preparation of the inoculum were incubated on this agar at 30° C. for 48 hours. A 4.5 ml volume of citric acid-phosphate buffer pH 5.5 plus Yeast-Nitrogen Base (Difco-0392-15) was then inoculated from the agar culture and incubated at 30° C. for 48 hours. A 0.1 ml aliquot of this culture was then added to 100 ml sterile physiological saline to give the final inoculum.
as §3

S. schenkii = assay: Antifungal activity: Minimum Inhibitory Concentration; format: cell-based, Sporotrichon schenkii NCPF 3182; conditions: for MIC: read-out: Minimum Inhibitory Concentration
Description: as §1, §2
(§4) The A. corymbifera, A. fumigatus, S. schenkii, T. rubrum, T. mentagrophytes, M. canis and P. verrucosa strains were all maintained on Sabouraud-Dextrose Agar (Oxoid CM 41) by incubating for 14 days at 27° C. To prepare the inocula 30 ml volumes of Sabouraud-Liquid medium (Oxoid CM 147) were inoculated from the agar cultures and incubated at 27° C. until heavy uniform growth resulted. The mycelial growth was then broken up by shaking with glass beads.
(§5) 1 Ml aliquots were removed from each of the cultures for the purpose of making viable counts and the cultures were then held at 4° C. The viable counts were made by preparing serial ten-fold dilutions of the cultures in sterile physiological saline and spreading on plates of Sabouraud-Dextrose Agar (Oxoid CM 41) which were then incubated at 27° C. for 14 days. When the viable counts had confirmed that each of the inocula contained approximately 10^6 colony forming units (C.F.U.) per ml the cultures were withdrawn from the refrigerator and used as the inocula for the tests.
(§6) (c) For the tests on each of the remaining seven strains and each of the test and reference compounds, a series of 8 tubes containing 4.5 ml volumes of Sabouraud-Liquid Medium (Oxoid CM 147) were prepared. To 7 of these were added 0.5 ml volumes of the final solutions of the test compounds, giving final concentrations in the broths of 100, 50, 10, 5, 1.0, 0.5 and 0.1 μg/ml. To the eighth tube in each series was added 0.5 ml of the solvent used and diluted as for the preparation of the 500 μg/ml solution of the compound. This tube was used as a growth control. The tubes were then inoculated with 0.1 ml aliquots of the inocula prepared as in "(b) Fungi" above. The tubes were then incubated at 27° C. with continuous shaking for a period of one week. The tubes were then examined for evidence of growth as shown by the presence of mycelial growth in the medium and the lowest concentration of the test compound which prevented fungal growth was recorded as the Minimal Inhibitory Concentration. This test procedure was carried out on two separate days.

T. rubrum = assay: as above; format: cell-based, Trichophyton rubrum NCPF 197; conditions: T. rubrum, 27° C., one week; for MIC: Trichophyton rubrum, read-out: Minimum Inhibitory Concentration
Description: as §1, §2, §4, §5, §6

T. mentagrophytes = assay: as above; format: cell-based, Trichophyton mentagrophytes NCPF 410; conditions: T. mentagrophytes, 27° C., one week; for MIC: Trichophyton mentagrophytes, read-out: Minimum Inhibitory Concentration
Description: as §1, §2
T. mentagrophytes NCPF 410
as §4, §5, §6

[1] = Day 2, pH 5.5, 37° C., 72 hours
[2] = S. schenkii, Day 2, 27° C., one week
[3] = Day 1, pH 5.5, 37° C., 72 hours
[4] = S. schenkii, Day 1, 27° C., one week
[5] = pH 5.5, C. albicans, Day 1, pH 5.5, 37° C., 72 hours, read-out: Minimum Inhibitory Concentrations
[6] = pH 5.5, C. albicans, Day 2, pH 5.5, 37° C., 72 hours, read-out: Minimum Inhibitory Concentrations
[7] = pH 5.5, C. neoformans, Day 1, read-out: Minimum Inhibitory Concentrations
[8] = pH 5.5, C. neoformans, Day 2, read-out: Minimum Inhibitory Concentrations

Row | Compound | MIC (C. albicans; [5]) | MIC (C. albicans; [6]) | MIC (C. neoformans; [7]) | MIC (C. neoformans; [8]) | MIC (S. schenkii; [4]) | MIC (S. schenkii; [2]) | MIC (T. rubrum; Day 1) | MIC (T. rubrum; Day 2) | MIC (T. mentagrophytes; Day 1) | MIC (T. mentagrophytes; Day 2) | other results
1 | CCCCCCCCCCCCCCCC[n+]1c(C)cc(C)n1C.Cc1ccc(S(=O)(=O)[O-])cc1 [Example 6-C, 1-hexadecyl-2,3,5-trimethylpyrazolium p-toluene sulfonate] |  |  |  |  |  |  |  |  |  |  | Minimum Inhibitory Concentrations (C. albicans; [1]): 5 µg/mL; MIC (C. albicans; pH 5.5, read-out: Minimum Inhibitory Concentrations): 5 µg/mL; MIC (C. neoformans; pH 5.5, read-out: Minimum Inhibitory Concentrations, C. neoformans, Day 1): 1 µg/mL; MIC (C. neoformans; pH 5.5, read-out: Minimum Inhibitory Concentrations, C. neoformans, Day 2): 1 µg/mL; Minimum Inhibitory Concentration (S. schenkii; [2]): 5 µg/mL; MIC (S. schenkii): 5 µg/mL; Minimum Inhibitory Concentration (T. rubrum; Day 2): 5 µg/mL; Minimum Inhibitory Concentration (T. mentagrophytes; Day 1): 5 µg/mL
2 | 2,3(5)-dimethyl-1-hexadecyl-pyrazolium methosulfate [Example 9] |  |  |  |  |  |  |  |  |  |  | Minimum Inhibitory Concentrations (C. albicans; [3]): 5 µg/mL; Minimum Inhibitory Concentrations (C. albicans; [1]): 10 µg/mL; Minimum Inhibitory Concentrations (C. neoformans; Day 1): 1 µg/mL; Minimum Inhibitory Concentrations (C. neoformans; Day 2): 0.5 µg/mL; Minimum Inhibitory Concentration (S. schenkii; [4]): 5 µg/mL; Minimum Inhibitory Concentration (S. schenkii; [2]): 5 µg/mL; Minimum Inhibitory Concentration (T. rubrum; Day 1): 5 µg/mL; Minimum Inhibitory Concentration (T. rubrum; Day 2): 5 µg/mL; Minimum Inhibitory Concentration (T. mentagrophytes; Day 1): 5 µg/mL; Minimum Inhibitory Concentration (T. mentagrophytes; Day 2): 5 µg/mL
3 | CCCCCCCCCCCC[n+]1c(C)cc(C)n1Cc1ccc(Cl)cc1Cl.[Br-] [Example 6-B, 2-(2,4-dichlorobenzyl)-3,5-dimethyl-1-dodecyl-pyrazolium bromide] | 5 µg/mL | 5 µg/mL | 1 µg/mL | 1 µg/mL | 1 µg/mL | 1 µg/mL | 5 µg/mL | 1 µg/mL | 1 µg/mL | 1 µg/mL | 
4 | CCCCCCCCCCCC[n+]1c(C)cc(C)n1Cc1ccc(Cl)cc1.[Br-] [Example 6-E, 2-(p-chlorobenzyl)-3,5-dimethyl-1-dodecyl-pyrazolium bromide] | 1 µg/mL | 5 µg/mL | 0.5 µg/mL | 0.5 µg/mL | 5 µg/mL | 1 µg/mL | 5 µg/mL | 5 µg/mL | 5 µg/mL | 5 µg/mL | 
5 | C=CCn1c(C)cc(C)[n+]1CCCCCCCCCCCCCCCC.[Br-] [Example 7, 2-allyl-3,5-dimethyl-1-hexadecyl-pyrazoliumbromide] | 5 µg/mL | 1 µg/mL | 1 µg/mL | 0.5 µg/mL | 5 µg/mL | 5 µg/mL | 1 µg/mL | 1 µg/mL | 1 µg/mL | 5 µg/mL | 
6 | CCCCCCCCCCCCn1c(C)cc(C)[n+]1C [Example 1, 1-dodecyl-2,3,5-trimethyl-pyrazolium methosulfate] | 10 µg/mL | 50 µg/mL | 0.5 µg/mL | 0.5 µg/mL | 50 µg/mL | 10 µg/mL | 10 µg/mL | 10 µg/mL | 50 µg/mL | 50 µg/mL | 
7 | CCCCCCCCCCCCCCCCn1c(C)cc(C)[n+]1C [Example 2, 1-hexadecyl-2,3,5-trimethyl-pyrazolium methosulfate] | 1 µg/mL | 1 µg/mL | 0.5 µg/mL | 0.5 µg/mL | 10 µg/mL | 10 µg/mL | 5 µg/mL | 5 µg/mL | 1 µg/mL | 5 µg/mL | 
8 | 2,3(5)-dimethyl-1-dodecyl-pyrazolium methosulfate [Example 8-A] |  |  |  |  |  |  |  |  |  |  | Minimum Inhibitory Concentrations (C. albicans; [3]): 10 µg/mL; Minimum Inhibitory Concentrations (C. albicans; [1]): 50 µg/mL; Minimum Inhibitory Concentrations (C. neoformans; Day 1): 5 µg/mL; Minimum Inhibitory Concentrations (C. neoformans; Day 2): 1 µg/mL; Minimum Inhibitory Concentration (S. schenkii; [4]): 10 µg/mL; Minimum Inhibitory Concentration (S. schenkii; [2]): 10 µg/mL; Minimum Inhibitory Concentration (T. rubrum; Day 1): 5 µg/mL; Minimum Inhibitory Concentration (T. rubrum; Day 2): 10 µg/mL; Minimum Inhibitory Concentration (T. mentagrophytes; Day 1): 5 µg/mL; Minimum Inhibitory Concentration (T. mentagrophytes; Day 2): 5 µg/mL
9 | CCCCCCCCCCCCCCCCn1ccc[n+]1C [Example 3-D, 1-hexadecyl-2-methyl-pyrazolium methosulfate] | 1 µg/mL | 1 µg/mL | 5 µg/mL | 1 µg/mL | 5 µg/mL | 10 µg/mL | 1 µg/mL | 1 µg/mL | 1 µg/mL | 1 µg/mL | 
10 | CCCCCCCCCCCCCCn1ccc[n+]1C [Example 3-G, 2-methyl-1-tetradecyl-pyrazolium methosulfate] | 5 µg/mL | 5 µg/mL | 1 µg/mL | 1 µg/mL | 5 µg/mL | 10 µg/mL | 1 µg/mL | 5 µg/mL | 1 µg/mL | 5 µg/mL | 
11 | CCCCCCCCCCCCCC[n+]1c(C)cc(C)n1Cc1ccc([N+](=O)[O-])cc1.[Br-] [Example 6-D, 3,5-dimethyl-2(4-nitrobenzyl)-1-tetradecyl-pyrazolium bromide] | 10 µg/mL | 5 µg/mL | 0.5 µg/mL | 0.5 µg/mL | 5 µg/mL | 5 µg/mL | 10 µg/mL | 10 µg/mL | 10 µg/mL | 10 µg/mL | 
12 | CCCCCCCCCCCCn1ccc[n+]1C [Example 3-E, 1-dodecyl-2-methy-pyrazolium methosulfate] | 50 µg/mL | 50 µg/mL | 1 µg/mL | 5 µg/mL | 50 µg/mL | 10 µg/mL | 5 µg/mL | 5 µg/mL | 1 µg/mL | 5 µg/mL | 
